Results from patent US20080233562A1, “Method of Estimating Antitumor Effect of Histone Deacetylase Inhibitor” (Astellas Pharma Inc., priority 2003, published 2008).

Assays:
[1] = tested on: human prostate cancer PC-3; assay: Antitumor effect on human prostate cancer PC-3 tumor fragment implanted s.c. in nude mice; assay type: in vivo
Procedure: A necessary amount of FK228 was weighed and a solvent (10% HCO-60/saline) was added. The mixture was sonicated to allow for dissolution. A positive control substance Paclitaxel was dissolved in Cremophor EL/ethanol (1:1) solution to 24 mg/mL prior to the testing, and preserved in a refrigerator. When in use, it was diluted with a 9-fold amount of physiological saline to 2.4 mg/mL (solvent component: 5% Cremophor EL-5% ethanol-90% saline).
(§3) For antitumor test of the pharmaceutical agent, BALB/cANnNCrj-nu/nu mice (male, 6-week-old) were purchased from Charles River Japan and, after acclimation for not less than one week, used for the test. The mice were reared under an SPF environment and allowed a free access to water and feed.
A grown solid tumor was subcultured for not less than 3 generations and used for the test.
(§4) A solid tumor subcultured in a nude mouse was subcutaneously implanted in the right back of a mouse as an about 3 mm square tumor tissue fragment. […]
(§5) The administration was started on the day of grouping (Day 0). […] The amount of liquid for each administration was calculated (0.1 mL/10 g body weight) based on the body weight measured on the administration day.
(§6) The tumor size (longer diameter, shorter diameter) and body weight were measured twice a week from Day 0.
(§7) The level of tumor growth was evaluated based on the tumor growth rate (Relative Tumor Volume). […]

[2] = tested on: human kidney cancer ACHN; assay: Antitumor effect on human kidney cancer ACHN tumor fragment implanted s.c. in nude mice; assay type: in vivo
Procedure: A necessary amount of FK228 was weighed and a solvent (10% HCO-60/saline) was added. The mixture was sonicated to allow for dissolution.
as §3
Cultured human kidney cancer cell line 1 (ACHN: available from ATCC) and human culture prostate cancer cell line 1 (PC-3: available from ATCC) were subcutaneously implanted at 2-3×10^7 cells in a nude mouse. A grown solid tumor was subcultured for not less than 3 generations and used for the test.
as §4, §5, §6, §7

[3] = tested on: human stomach cancer SC-6; assay: Antitumor effect on human stomach cancer SC-6 tumor fragment implanted s.c. in nude mice; assay type: in vivo; details: SC-6 s.c. in nude mice, 3.2 mg/kg i.v.
Text: (§1) A solid tumor subcultured in a nude mouse was subcutaneously implanted in the right back of a mouse as an about 3 mm square tumor tissue fragment. After the tumor implantation, when the tumor volume (½×longer diameter×shorter diameter^2) reached 100-300 mm^3, the mice were grouped into 6 mice per group to level the tumor size.
human gastric cancer SC-6; obtained from Central Institute for Experimental Animals (tumor fragment 3 mm×3 mm×3 mm/mouse implantation site s.c.)
(§2) By the method shown in Example 1, 3 mm square tumor fragments (human prostate cancer PC-3, human stomach cancer SC-6, human kidney cancer ACHN and human kidney cancer A498) were subcutaneously implanted in nude mice, and when the tumor volume (long diameter 9 mm, short diameter 8 mm) reached about 100-300 mm^3, FK228 (3.2 mg/kg) was intravenously administered. The tumor growth suppressing rates then were 98%, 84%, 20% and 29%, respectively.

[4] = tested on: human kidney cancer A498; assay: Antitumor effect on human kidney cancer A498 tumor fragment implanted s.c. in nude mice; assay type: in vivo; details: 3.2 mg/kg i.v.
Text: as §1
human kidney cancer A498; obtained from ATCC (tumor fragment 3 mm×3 mm×3 mm/mouse implantation site s.c.)
as §2

[5] = Maximum tolerated dose, intravenous administration to nude mice; details: mouse, in vivo, i.v.
Procedure: The administration was started on the day of grouping (Day 0). FK228 was intravenously administered to an FK228 administration group 3 times every 4 days (q4d×3) (3.2 and 1.8 mg/kg). Paclitaxel (24 mg/kg) was intravenously administered for 5 consecutive days (qd×5) to a positive control substance Paclitaxel administration group. Only a solvent (10% HCO-60/saline) was administered (q4d×3) to a control group. The amount of liquid for each administration was calculated (0.1 mL/10 g body weight) based on the body weight measured on the administration day. Note that 3.2 mg/kg/day (q4d×3) of FK228 and 24 mg/kg/day (qd×5) of Paclitaxel were the maximum tolerated doses (MTD) thereof.

Row | Compound | antitumor action (tumor growth rate, Relative Tumor Volume) ([1]; PC-3 in nude mice, FK228 3.2 mg/kg i.v. q4d×3, FIG. 1(a)) | tumor growth suppressing rate ([1]; PC-3 s.c. in nude mice, 3.2 mg/kg i.v.) [%] | antitumor action (tumor growth rate, Relative Tumor Volume) ([2]; ACHN in nude mice, FK228 i.v. q4d×3, FIG. 1(b)) | tumor growth suppressing rate ([2]; ACHN s.c. in nude mice, 3.2 mg/kg i.v.) [%] | tumor growth suppressing rate [3] [%] | tumor growth suppressing rate [4] [%] | MTD ([5]; q4d×3, nude mice) [mg/kg/day] | MTD at 5 days ([5]; 24 mg/kg, qd×5, nude mice) [mg/kg/day]
1 | C/C=C1\NC(=O)[C@H]2CSSCC/C=C/[C@H](CC(=O)N[C@H](C(C)C)C(=O)N2)OC(=O)[C@H](C(C)C)NC1=O [FK228] | strong antitumor action | 98 | did not show an antitumor action | 20 | 84 | 29 | 3.2 | –
2 | CC(=O)O[C@H]1C(=O)[C@@]2(C)[C@H]([C@H](OC(=O)c3ccccc3)[C@]3(O)C[C@H](OC(=O)[C@H](O)[C@@H](NC(=O)c4ccccc4)c4ccccc4)C(C)=C1C3(C)C)[C@]1(OC(C)=O)CO[C@@H]1C[C@@H]2O [Paclitaxel, reference compound] | – | – | – | – | – | – | – | 24
